Drawing on US20200071310A1, “N-ARYL PYRAZOLES AS NRF2 REGULATORS” (GLAXOSMITHKLINE INTELLECTUAL PROPERTY DEVELOPMENT LIMITED, priority 2016, published 2020), this text covers EC50 for 14 compounds.

Structures can show the parent of a compound that is named as a salt. Where only a bound is given, the exact number is not on record here.

Experiment [1] concerns the target T1, Keap1 (321-609) Kelch domain / TAMRA-labeled NRF2 peptide (ETGE motif) (Homo sapiens, UniProt Q14145).
T1 construct: the Kelch domain (321-609) of Keap1 is used
Briefly: NRF2-Keap1 FP Assay. To be noted: Keap1 (321-609) 20 nM, Tamra labeled peptide 8 nM. The format is binding. An excerpt:
One model for the NRF2-Keap1 interaction is through two binding sites in the Neh2 domain on NRF2. The two sites are referred to as the DLG binding motif (latch domain, uM affinity) and the ETGE binding motif (hinge domain, nM affinity). The Keap1 protein consists of an N-terminal region (NTR), a broad complex, tramtrack, and brick a' brac domain (BTB), an intervening region (IVR), a double glycine repeat domain (DGR or Kelch), and a C-terminal region. The DLG and ETGE motifs of NRF2's Neh2 domain bind to the Kelch domain of Keap1 at different affinities. In the Keap1 Kelch fluorescence polarization (FP) assay, a TAMRA-labeled 16mer peptide (AFFAQLQLDEETGEFL) containing the ETGE motif of NRF2 and the Kelch domain (321-609) of Keap1 is used. The assay determines if a compound interferes with the binding between Keap1 […] and the TAMRA-labeled peptide. Binding of TAMRA-labeled NRF2 peptide to Keap1 (321-609) results in a high FP signal. If a compound interferes with the binding between the peptide and the protein, it will cause the assay signal to decrease. Thus, assay signal is inversely proportional to binding inhibition.
100 nl of 100× compound dose response curves (serial 3-fold dilutions) in DMSO were stamped using an Echo liquid handling system (Labcyte) into 384-well low volume black assay plates (Greiner, #784076), with DMSO in columns 6 and 18. The top concentration of compound was located in columns 1 and 13. Keap1 (321-609) was diluted to 40 nM (2×) in 1× assay buffer (50 mM Tris, pH 8.0, 100 mM NaCl, 5 mM MgCl2, 1 mM DTT, 2 mM CHAPS, and 0.005% BSA) and 5 ul was added using a Multidrop Combi (Thermo Electron Corporation) equipped with a metal tip dispenser to all wells of the compound plate, except column 18. Column 18 received only 5 ul of assay buffer. Immediately, 5 uL of 16 nM (2×) of Tamra labeled peptide (AFFAQLQLDEETGEFL, 21st Century Biochemicals) was added to all wells of the plate. The plates were spun at 500 rpm for 1 min, incubated for 1 hr at room temperature, and read on an Analyst GT (Molecular Devices) equipped with excitation (530/25 nm) and emission (580/10 nm) filters designed for Tamra probes. A 561 nm dichroic mirror was also used in the Analyst. The final assay concentrations of Keap1l (321-609) and Tamra labeled peptide were 20 nM and 8 nM, respectively. Fluorescence measurements, represented as mP, were used in the transformation of the data. Compound activity was calculated based on percent inhibition, normalized against controls in the assay (Control 1 contains the Tamra peptide and Keap1 (321-609) together (0% response) and control 2 contains the Tamra peptide alone (100% response)). Data analysis was handled using the software package Abase XE (Surrey, United Kingdom. The % inhibition values were calculated by the equation:
100−(100*((compound response−average control 2)/(average control 1−average control2))).
For calculation of pIC50s, Abase XE used a four parameter equation.
IC50s<1 nM (+++++), IC50s 1 nM-10 nM (++++), IC50s 10-100 nM (+++), IC50s 100 nM-1 μM (++), IC50s 1-10 μM (+), IC50s>10 μM (−), or were not determined (ND).

The test system of experiment [2] is NQO1 specific enzyme activity in BEAS-2B cells. The experiment is described as follows: BEAS-2B NQO1 MTT Assay. In kind it is cell-based. To be noted: Homo sapiens; NQO1 specific activity induction, BEAS-2B cells, 48 hours; read-out: EC50. An excerpt:
NAD(P)H:quinone oxidoreductase 1 (NQO1), also called DT diaphorase, is a homodimeric FAD-containing enzyme that catalyzes obligatory NAD(P)H-dependent two-electron reductions of quinones and protects cells against the toxic and neoplastic effects of free radicals and reactive oxygen species arising from one-electron reductions. The transcription of NQO1 is finely regulated by NRF2, and thus NQO1 activity is a good marker for NRF2 activation. On day one, frozen BEAS-2B cells (ATCC) were thawed in a water bath, counted, and re-suspended at a concentration of 250,000 cells/mL. Fifty microliters of cells were plated in 384 well black clear-bottomed plates. Plates were incubated at 37° C., 5% CO2 overnight. On day two, plates were centrifuged and 50 nL of compound or controls were added to the cells. Plates were then incubated at 37° C., 5% CO2 for 48 hours. On day four, medium was aspirated from the plate and crude cell lysates were made by adding 13 uL of 1× Cell Signaling Technologies lysis buffer with 1 Complete, Mini, EDTA-free Protease Inhibitor Tablet (Roche) for each 10 mL of lysis buffer. After lysis plates were incubated for 20 minutes at room temperature. Two microliters of lysate were removed for use in Cell Titer Glo assay (Promega) and MTT cocktail was prepared (Prochaska et. al. 1998) for measurement of NQO1 activity. Fifty microliters of MTT cocktail is added to each well, plate is centrifuged, and analyzed on an Envision plate reader (Perkin Elmer) using Absorbance 570 nm label for 30 minutes. Product formation was measured kinetically and the pEC50 of NQO1 specific activity induction was calculated by plotting the change in absorbance (Delta OD/min) versus the log of compound concentration followed by 3-parameter fitting. pEC50 is the negative log of the EC50.

T1 sequence (Q14145 321-609): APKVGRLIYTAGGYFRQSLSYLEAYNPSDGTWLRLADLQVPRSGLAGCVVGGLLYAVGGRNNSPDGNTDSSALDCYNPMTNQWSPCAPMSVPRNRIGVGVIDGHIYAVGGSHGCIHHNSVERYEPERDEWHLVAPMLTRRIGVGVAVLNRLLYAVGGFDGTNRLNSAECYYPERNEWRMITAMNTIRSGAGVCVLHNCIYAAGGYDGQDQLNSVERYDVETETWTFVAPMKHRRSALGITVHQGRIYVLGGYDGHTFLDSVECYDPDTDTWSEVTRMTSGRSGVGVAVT

One may read the EC50 as the concentration needed to bring the measured effect to its halfway point. In the case of `C[C@H]1Cc2ccccc2S(=O)(=O)N(Cc2cccc(-n3ncc(C(=O)O)c3[C@@H]3C[C@H]3c3cn(C)nn3)c2)C1` [Example 15, 1-(3-(((S)-4-methyl-1,1-dioxido-4,5-dihydrobenzo[f][1,2]thiazepin-2(3H)-yl)methyl)phenyl)-5-((trans)-2-(1-methyl-1H-1,2,3-triazol-4-yl)cyclopropyl)-1H-pyrazole-4-carboxylic acid], the EC50 in experiment [1] lay within 10 to 100 nM; in experiment [2] it was 1000 to 10000 nM.

Consider `CCOc1ccc(Br)cc1CN(C)Cc1cccc(-n2ncc(C(=O)O)c2[C@@H]2C[C@H]2c2cn(C)nn2)c1` (racemic) [Example 54, 1-(3-(((5-bromo-2-ethoxybenzyl)(methyl)amino)methyl)phenyl)-5-((trans)-2-(1-methyl-1H-1,2,3-triazol-4-yl)cyclopropyl)-1H-pyrazole-4-carboxylic acid trifluoroacetate], for which the EC50 in experiment [1] and in experiment [2] was 100 to 1000 nM throughout.

Take `CC[C@H]1Cc2ccc(Br)cc2S(=O)(=O)N(Cc2cccc(-n3ncc(C(=O)O)c3[C@@H]3C[C@H]3c3cn(C)nn3)c2)C1` [Example 22, 1-(3-(((S)-8-bromo-4-ethyl-1,1-dioxido-4,5-dihydrobenzo[f][1,2]thiazepin-2(3H)-yl)methyl)phenyl)-5-((1R,2R)-2-(1-methyl-1H-1,2,3-triazol-4-yl)cyclopropyl)-1H-pyrazole-4-carboxylic acid]: the results for the EC50 in experiment [1] and in experiment [2] were under 1 nM and 1 to 10 nM, respectively.

As to `Cn1cc([C@@H]2C[C@H]2c2c(C(=O)O)cnn2-c2cccc(CN3CC(C)(C)Oc4ccc(F)cc4S3(=O)=O)c2)nn1` (racemic) [Example 5], the EC50 in experiment [1] fell in the range of 1 to 10 nM; in experiment [2] it was 1000 to 10000 nM.

`Cn1cc([C@@H]2C[C@H]2c2c(C(=O)O)cnn2-c2cccc(CN3Cc4ccccc4OC(C)(C)C3)c2)nn1` (racemic) [Example 8]: the EC50 in experiment [1] was in the range of 10 to 100 nM; in experiment [2], 1000 to 10000 nM.

Consider `C[C@H]1Cc2ccc(C(F)(F)F)cc2S(=O)(=O)N([C@H]2CCc3c2cccc3-n2ncc(C(=O)O)c2[C@@H]2C[C@H]2c2cn(C)nn2)C1` [Example 26a, 1-((S)-1-((S)-4-Methyl-1,1-dioxido-8-(trifluoromethyl)-4,5-dihydrobenzo[f][1,2]thiazepin-2(3H)-yl)-2,3-dihydro-1H-inden-4-yl)-5-((1R,2R)-2-(1-methyl-1H-1,2,3-triazol-4-yl)cyclopropyl)-1H-pyrazole-4-carboxylic acid], for which the EC50 in experiment [1] is 10 to 100 nM; in experiment [2], 100 to 1000 nM.

Turning to `C[C@H]1Cc2cc(C(F)(F)F)ccc2S(=O)(=O)N(Cc2cccc(-n3ncc(C(=O)O)c3[C@@H]3C[C@H]3c3cnn(C)c3)c2)C1` [Example 30, 1-(3-(((S)-4-Methyl-1,1-dioxido-7-(trifluoromethyl)-4,5-dihydrobenzo[f][1,2]thiazepin-2(3H)-yl)methyl)phenyl)-5-(trans-2-(1-methyl-1H-pyrazol-4-yl)cyclopropyl)-1H-pyrazole-4-carboxylic acid], the EC50 is 10 to 100 nM in experiment [1] and 1000 to 10000 nM in experiment [2].

With `C[C@H]1Cc2ccc(Br)cc2S(=O)(=O)N(Cc2cccc(-n3ncc(C(=O)O)c3[C@@H]3C[C@H]3c3cn(C)nn3)c2)C1` (racemic) [Example 17, 1-(3-((8-bromo-4-methyl-1,1-dioxido-4,5-dihydrobenzo[f][1,2]thiazepin-2(3H)-yl)methyl)phenyl)-5-((trans)-2-(1-methyl-1H-1,2,3-triazol-4-yl)cyclopropyl)-1H-pyrazole-4-carboxylic acid], the figures for the EC50 in experiment [1] and in experiment [2] were 1 to 10 nM and 100 to 1000 nM, respectively.

For `CCCC[C@H]1Cc2ccc(C(F)(F)F)cc2S(=O)(=O)N(Cc2cccc(-n3ncc(C(=O)O)c3[C@@H]3C[C@H]3c3cn(C)nn3)c2)C1` [Example 21, 1-(3-(((S)-4-butyl-1,1-dioxido-8-(trifluoromethyl)-4,5-dihydrobenzo[f][1,2]thiazepin-2(3H)-yl)methyl)phenyl)-5-((1R,2R)-2-(1-methyl-1H-1,2,3-triazol-4-yl)cyclopropyl)-1H-pyrazole-4-carboxylic acid], the EC50 in experiment [1] and in experiment [2] was under 1 nM throughout.

As to `CC[C@H]1Cc2ccc(C(F)(F)F)cc2S(=O)(=O)N(Cc2cccc(-n3ncc(C(=O)O)c3[C@@H]3C[C@H]3c3cn(C)nn3)c2)C1` [Example 20, 1-(3-(((S)-4-ethyl-1,1-dioxido-8-(trifluoromethyl)-4,5-dihydrobenzo[f][1,2]thiazepin-2(3H)-yl)methyl)phenyl)-5-((1R,2R)-2-(1-methyl-1H-1,2,3-triazol-4-yl)cyclopropyl)-1H-pyrazole-4-carboxylic acid], the EC50 is under 1 nM in experiment [1] and 1 to 10 nM in experiment [2].

For `CCOc1ccccc1S(=O)(=O)N(C)Cc1cccc(-n2ncc(C(=O)O)c2[C@@H]2C[C@H]2c2cn(C)nn2)c1` (racemic) [Example 45, 1-(3-((2-ethoxy-N-methylphenylsulfonamido)methyl)phenyl)-5-((trans)-2-(1-methyl-1H-1,2,3-triazol-4-yl)cyclopropyl)-1H-pyrazole-4-carboxylic acid], the figures for the concentration giving a half-maximal response (EC50) in experiment [1] and in experiment [2] were 100 to 1000 nM and 1000 to 10000 nM, respectively.

Turning to `Cc1ccccc1S(=O)(=O)N(C)Cc1cccc(-n2ncc(C(=O)O)c2[C@@H]2C[C@H]2c2cn(C)nn2)c1` (racemic) [Example 42, 1-(3-((N,2-dimethylphenylsulfonamido)methyl)phenyl)-5-((trans)-2-(1-methyl-1H-1,2,3-triazol-4-yl)cyclopropyl)-1H-pyrazole-4-carboxylic acid], the figures for the EC50 in experiment [1] and in experiment [2] were 100 to 1000 nM and 1000 to 10000 nM, respectively.

With `CN(Cc1cccc(-n2ncc(C(=O)O)c2[C@@H]2C[C@H]2c2cn(C)nn2)c1)S(=O)(=O)c1cccc2cccnc12` (racemic) [Example 51, 5-((trans)-2-(1-methyl-1H-1,2,3-triazol-4-yl)cyclopropyl)-1-(3-((N-methylquinoline-8-sulfonamido)methyl)phenyl)-1H-pyrazole-4-carboxylic acid], the EC50 in experiment [1] and in experiment [2] was 100 to 1000 nM each time.

As to `CCCCCCN(Cc1cccc(-n2ncc(C(=O)O)c2[C@@H]2C[C@H]2c2cn(C)nn2)c1)S(=O)(=O)c1ccc(Oc2ccccc2)cc1` (relative stereo) [Example 36, 1-(3-((N-hexyl-4-phenoxyphenylsulfonamido)methyl)phenyl)-5-((trans)-2-(1-methyl-1H-1,2,3-triazol-4-yl)-cyclopropyl)-1H-pyrazole-4-carboxylic acid], the EC50 was in the range of 10 to 100 nM in experiment [1] and 100 to 1000 nM in experiment [2].
